Source: paper PMC7655827, “NeoR, a near-infrared absorbing rhodopsin” (Nature Communications, 2020)

Tests used:
Assay type in all cases: binding
NeoR full-length protein = target: T1, NeoR full-length protein (Rhizoclosmatium globosum, UniProt A0A1Y2CSJ0); test: UV-Vis absorption of purified protein; settings: detergent; covalent (retinal Schiff base)
T1 construct: gene BCR33DRAFT_847233; full length aa 1-509, C-terminal His(8) tag, Sf21 insect cells
T1 sequence (A0A1Y2CSJ0 1-509): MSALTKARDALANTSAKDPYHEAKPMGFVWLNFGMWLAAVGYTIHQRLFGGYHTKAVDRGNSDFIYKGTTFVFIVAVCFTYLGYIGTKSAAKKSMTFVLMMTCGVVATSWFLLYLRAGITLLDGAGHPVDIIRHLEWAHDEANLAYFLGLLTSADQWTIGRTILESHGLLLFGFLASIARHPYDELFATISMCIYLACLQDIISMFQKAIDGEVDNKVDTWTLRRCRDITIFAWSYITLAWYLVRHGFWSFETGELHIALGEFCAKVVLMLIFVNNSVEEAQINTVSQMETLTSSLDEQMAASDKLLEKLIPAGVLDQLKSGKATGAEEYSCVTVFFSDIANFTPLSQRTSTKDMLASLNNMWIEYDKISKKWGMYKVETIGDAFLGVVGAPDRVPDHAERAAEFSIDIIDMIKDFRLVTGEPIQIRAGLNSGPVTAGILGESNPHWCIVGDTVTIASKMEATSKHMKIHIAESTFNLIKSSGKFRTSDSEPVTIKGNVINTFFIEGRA

[1] = target: T2, NeoR (RGC3), rhodopsin fragment (Rhizoclosmatium globosum, UniProt A0A1Y2CSJ0, E262Q); test: UV-Vis absorption and fluorescence of purified protein; settings: 50 mM HEPES pH 7.4, 200 mM NaCl, 0.02% DDM/0.004% CHS; covalent (retinal Schiff base)
T2 construct: gene BCR33DRAFT_847233; rhodopsin domain aa 1-279; C-terminal strepII tag (Sf21) or C-terminal 1D4 tag TETSQVAPA (HEK-T, mutants)

[2] = target: T3, NeoR (RGC3), rhodopsin fragment (Rhizoclosmatium globosum, UniProt A0A1Y2CSJ0, T238P); test: as above; settings: 50 mM HEPES pH 7.4, 200 mM NaCl, 0.02% DDM/0.004% CHS; covalent (retinal Schiff base)
T3 construct: gene BCR33DRAFT_847233; rhodopsin domain aa 1-279; C-terminal strepII tag (Sf21) or C-terminal 1D4 tag TETSQVAPA (HEK-T, mutants)

[3] = target: T4, NeoR (RGC3), rhodopsin fragment (Rhizoclosmatium globosum, UniProt A0A1Y2CSJ0); test: as above; settings: 50 mM HEPES pH 7.4, 200 mM NaCl, 0.02% DDM/0.004% CHS; covalent (retinal Schiff base)
T4 construct: gene BCR33DRAFT_847233; rhodopsin domain aa 1-279; C-terminal strepII tag (Sf21) or C-terminal 1D4 tag TETSQVAPA (HEK-T, mutants)

[4] = target: T5, NeoR (RGC3), rhodopsin fragment (Rhizoclosmatium globosum, UniProt A0A1Y2CSJ0, T238A); test: as above; settings: 50 mM HEPES pH 7.4, 200 mM NaCl, 0.02% DDM/0.004% CHS; covalent (retinal Schiff base)
T5 construct: gene BCR33DRAFT_847233; rhodopsin domain aa 1-279; C-terminal strepII tag (Sf21) or C-terminal 1D4 tag TETSQVAPA (HEK-T, mutants)

[5] = target: T6, NeoR (RGC3), rhodopsin fragment (Rhizoclosmatium globosum, UniProt A0A1Y2CSJ0, S191A); test: as above; settings: 50 mM HEPES pH 7.4, 200 mM NaCl, 0.02% DDM/0.004% CHS; covalent (retinal Schiff base)
T6 construct: gene BCR33DRAFT_847233; rhodopsin domain aa 1-279; C-terminal strepII tag (Sf21) or C-terminal 1D4 tag TETSQVAPA (HEK-T, mutants)

[6] = target: T7, NeoR (RGC3), rhodopsin fragment (Rhizoclosmatium globosum, UniProt A0A1Y2CSJ0, E136Q); test: as above; settings: 50 mM HEPES pH 7.4, 200 mM NaCl, 0.02% DDM/0.004% CHS; covalent (retinal Schiff base)
T7 construct: gene BCR33DRAFT_847233; rhodopsin domain aa 1-279; C-terminal strepII tag (Sf21) or C-terminal 1D4 tag TETSQVAPA (HEK-T, mutants)
T7 sequence (A0A1Y2CSJ0 entry or part of it E136Q): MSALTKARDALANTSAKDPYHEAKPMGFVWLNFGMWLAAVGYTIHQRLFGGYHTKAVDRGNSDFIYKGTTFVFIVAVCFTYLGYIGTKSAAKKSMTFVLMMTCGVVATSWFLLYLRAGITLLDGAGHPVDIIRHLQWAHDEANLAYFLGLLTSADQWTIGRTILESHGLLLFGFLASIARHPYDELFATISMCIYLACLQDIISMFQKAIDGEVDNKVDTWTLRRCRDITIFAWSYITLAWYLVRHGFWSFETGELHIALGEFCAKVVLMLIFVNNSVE

T2 sequence (A0A1Y2CSJ0 entry or part of it E262Q): as the sequence (A0A1Y2CSJ0 entry or part of it E136Q) above, with Q136E, E262Q counted along it
T6 sequence (A0A1Y2CSJ0 entry or part of it S191A): as the sequence (A0A1Y2CSJ0 entry or part of it E136Q) above, with Q136E, S191A counted along it
T3 sequence (A0A1Y2CSJ0 entry or part of it T238P): as the sequence (A0A1Y2CSJ0 entry or part of it E136Q) above, with Q136E, T238P counted along it
T5 sequence (A0A1Y2CSJ0 entry or part of it T238A): as the sequence (A0A1Y2CSJ0 entry or part of it E136Q) above, with Q136E, T238A counted along it

SMILES: CC1=C(/C=C/C(C)=C/C=C/C(C)=C/C=O)C(C)(C)CCC1 [all-trans retinal]
- UV-Vis absorption of purified protein (NeoR full-length protein): The spectral properties are similar for the NeoR full-length protein and the rhodopsin fragment
- UV-Vis absorption and fluorescence of purified protein [1]: Mutation of either one of these to Gln results in chromophore deprotonation
- UV-Vis absorption and fluorescence of purified protein [2]: achieved by mutation of S191A and T238P/A, which are located near the β-ionone ring
- UV-Vis absorption and fluorescence of purified protein [3]: in the absence of retinal no functional rhodopsin was produced when recombinant NeoR was expressed
- UV-Vis absorption and fluorescence of purified protein [4]: achieved by mutation of S191A and T238P/A, which are located near the β-ionone ring
- UV-Vis absorption and fluorescence of purified protein [5]: achieved by mutation of S191A and T238P/A, which are located near the β-ionone ring
- UV-Vis absorption and fluorescence of purified protein [6]: Mutation of either one of these to Gln results in chromophore deprotonation
